Like-named read-outs stand apart in the source and are kept apart here. Where no end group is shown, it is not given here.
Tests used:
MrgX2 = molecular target: T1, MrgX2 (Homo sapiens, UniProt Q96LB1); assay: β-arrestin-2 recruitment to MrgX2, NanoBiT in HEK cells; assay type: cell-based
T1 construct: expressed in transfected cells; host or cells: HEK293T
T1 sequence (Q96LB1 1-330): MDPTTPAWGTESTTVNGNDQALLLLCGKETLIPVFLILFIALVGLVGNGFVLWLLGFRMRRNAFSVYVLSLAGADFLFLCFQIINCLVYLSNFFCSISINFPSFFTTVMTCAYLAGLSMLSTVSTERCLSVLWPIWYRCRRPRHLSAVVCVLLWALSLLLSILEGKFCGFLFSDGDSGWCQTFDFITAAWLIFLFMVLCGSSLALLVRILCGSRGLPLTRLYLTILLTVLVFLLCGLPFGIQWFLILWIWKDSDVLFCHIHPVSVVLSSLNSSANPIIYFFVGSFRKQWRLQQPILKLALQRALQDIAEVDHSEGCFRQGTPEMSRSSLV
Description: (§1) Ligand-induced recruitment of β-arrestin, miniGi or miniGq proteins (engineered GTPase domain of Gα subunit)[46],[47] to the receptors was monitored using NanoBiT technology (Promega), as previously described.[27],[48] HEK293T cells (5 × 10^6 cells) were seeded in 10 cm dishes, and 24 h later, the cells were cotransfected with pNBe plasmids encoding the receptor C-terminally fused to SmBiT and β-arrestin, miniGi, or miniGq N-terminally fused to LgBiT. After 24 h, the cells were detached and incubated for 25 min at 37 °C with Nano-Glo Live Cell substrate diluted 200-fold, distributed into white 96-well plates (1 × 10^5 cells/well), and treated with the indicated concentrations of peptides. Luminescence was recorded during 20 min with a Mithras LB940 luminometer (Berthold Technologies). For the concentration–response curves, the signal recorded with a saturating concentration of full agonist for each receptor was set as 100%. For receptor screening experiments, results were expressed as fold vehicle, and an agonist chemokine (100 nM) listed in the IUPHAR repository of chemokine receptor ligands was included as a positive control for each receptor.
(§2) Concentration–response curves were fitted to the four-parameter Hill equation using an iterative, least-squares method (GraphPad Prism version 8.0.1). All curves were fitted to data points generated from the mean of at least three independent experiments. Statistical tests, i.e., ordinary one-way ANOVA and post hoc analysis were performed with GraphPad Prism 8.0.1. The p-values are indicated as follows: *, p < 0.05; **, p < 0.01; ***, p < 0.001; and ****, p < 0.0001.

ACKR3 = molecular target: T2, ACKR3 (Homo sapiens, UniProt P25106); assay: β-arrestin-2 recruitment to ACKR3, nanoluciferase complementation (NanoBiT) in HEK cells; assay type: cell-based; conditions: for activity toward ACKR3 (β-arrestin-2 recruitment), in words: concentration range up to 9 μM
T2 construct: expressed in transfected cells; host or cells: HEK293T
T2 sequence (P25106 whole entry): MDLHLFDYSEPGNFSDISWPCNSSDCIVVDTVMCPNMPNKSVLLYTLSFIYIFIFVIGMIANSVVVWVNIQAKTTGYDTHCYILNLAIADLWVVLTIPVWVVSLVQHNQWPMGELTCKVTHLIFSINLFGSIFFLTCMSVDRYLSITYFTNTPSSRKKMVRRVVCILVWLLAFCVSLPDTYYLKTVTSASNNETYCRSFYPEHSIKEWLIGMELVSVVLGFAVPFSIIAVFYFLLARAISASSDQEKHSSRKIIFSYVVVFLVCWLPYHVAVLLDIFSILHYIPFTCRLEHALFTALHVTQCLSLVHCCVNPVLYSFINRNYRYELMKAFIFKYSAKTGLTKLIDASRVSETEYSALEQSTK
Description: as §1, §2

GPR182 = molecular target: T3, GPR182 (Homo sapiens, UniProt O15218); assay: β-arrestin-2 recruitment to GPR182 (NanoBiT screen); assay type: cell-based; conditions: peptides 3 μM
T3 construct: expressed in transfected cells; host or cells: HEK293T
T3 sequence (O15218 whole entry, species assumed): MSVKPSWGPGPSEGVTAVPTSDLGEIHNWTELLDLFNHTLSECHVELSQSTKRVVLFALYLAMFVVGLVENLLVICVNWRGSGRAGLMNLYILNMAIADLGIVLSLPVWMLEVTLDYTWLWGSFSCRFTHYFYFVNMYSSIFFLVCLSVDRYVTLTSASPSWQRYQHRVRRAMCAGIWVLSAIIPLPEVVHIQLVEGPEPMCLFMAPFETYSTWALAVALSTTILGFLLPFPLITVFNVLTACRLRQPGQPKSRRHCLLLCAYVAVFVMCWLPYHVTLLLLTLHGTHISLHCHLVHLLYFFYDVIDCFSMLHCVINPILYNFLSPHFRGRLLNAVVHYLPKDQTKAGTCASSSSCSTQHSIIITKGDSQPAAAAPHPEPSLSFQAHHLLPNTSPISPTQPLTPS
Description: as §1

HEK-ACKR3 cells = assay: PAMP-12-FAM uptake by HEK-ACKR3 cells, imaging flow cytometry; assay type: cell-based, human; conditions: chemokine 200 nM, 15 min preincubation; PAMP-12-FAM 3 μM, 45 min at 37 °C
Description: HEK293T or HEK-ACKR3 cells were harvested in Opti-MEM and distributed into 96-well plates (3 × 10^5 cells/well). […] At 24 h post-transfection, the cells were harvested and treated as described above. Dead cells were excluded using Zombie NIR viability dye (BioLegend). Images of 1 × 10^4 in-focus, living single cells were acquired with an ImageStream Mark II imaging flow cytometer (Amnis) equipped with an extended depth of field (EDF) module and using 60× magnification. Samples were analyzed using Ideas6.2 software. The number of spots per cell was determined using a mask-based software wizard.

[1] = system: all known classical and atypical human chemokine receptors; assay: β-arrestin-2 recruitment screen toward all chemokine receptors (NanoBiT); assay type: cell-based; conditions: peptides 3 μM, fold change over vehicle
Description: as §1

[2] = pEC50 ± S.E.M, β-arrestin-2 recruitment, ACKR3 (Supplementary Table 2), HEK cells, NanoBiT, three independent experiments
[3] = EC50, β-arrestin-2 recruitment toward MrgX2, HEK cells, NanoBiT, normalised to full agonist, three independent experiments
[4] = pEC50 ± S.E.M, β-arrestin recruitment, MrgX2 (Supplementary Table 1), HEK cells, NanoBiT, NA: no activity detected in the concentration range tested

| Compound | EC50 (MrgX2) [nM] | EC50 (ACKR3; [2]) [nM] | also measured |
| --- | --- | --- | --- |
| CC(C)C[C@H](NC(=O)[C@H](C)NC(=O)[C@H](Cc1c[nH]c2ccccc12)NC(=O)[C@H](CCCCN)NC(=O)[C@H](CC(N)=O)NC(=O)[C@H](Cc1c[nH]c2ccccc12)NC(=O)[C@H](CCCCN)NC(=O)[C@H](CCCCN)NC(=O)[C@H](CCCNC(=N)N)NC(=O)[C@@H](N)Cc1ccccc1)C(=O)N[C@@H](CO)C(=O)N[C@@H](CCCNC(=N)N)C(=O)O | 2290 | 1580 | – |
| CC[C@H](C)[C@H](NC(=O)[C@H](CCC(N)=O)NC(=O)[C@H](Cc1c[nH]cn1)NC(=O)[C@H](C)NC(=O)[C@H](CC(C)C)NC(=O)[C@H](CCCCN)NC(=O)[C@H](CCC(N)=O)NC(=O)[C@@H](NC(=O)[C@@H](NC(=O)[C@@H]1CSSC[C@H](NC(=O)CNC(=O)[C@H](Cc2ccccc2)NC(=O)[C@H](CO)NC(=O)[C@H](CCCNC(=N)N)NC(=O)[C@H](CC(C)C)NC(=O)CNC(=O)[C@H](CCC(N)=O)NC(=O)[C@H](Cc2ccccc2)NC(=O)[C@H](CC(N)=O)NC(=O)[C@H](CC(N)=O)NC(=O)[C@H](CCSC)NC(=O)[C@H](CO)NC(=O)[C@H](CCC(N)=O)NC(=O)[C@H](CCCNC(=N)N)NC(=O)[C@@H](N)Cc2ccc(O)cc2)C(=O)N[C@@H](CCCNC(=N)N)C(=O)N[C@@H](Cc2ccccc2)C(=O)NCC(=O)N[C@@H]([C@@H](C)O)C(=O)N1)[C@@H](C)O)C(C)C)C(=O)N[C@@H](Cc1ccc(O)cc1)C(=O)N[C@@H](CCC(N)=O)C(=O)N[C@@H](Cc1ccccc1)C(=O)N[C@H](C(=O)N[C@@H](CC(=O)O)C(=O)N[C@@H](CCCCN)C(=O)N[C@@H](CC(=O)O)C(=O)N[C@@H](CCCCN)C(=O)N[C@@H](CC(=O)O)C(=O)N[C@@H](CC(N)=O)C(=O)N[C@H](C(=O)N[C@@H](C)C(=O)N1CCC[C@H]1C(=O)N[C@@H](CCCNC(=N)N)C(=O)N[C@@H](CO)C(=O)N[C@@H](CCCCN)C(=O)N[C@H](C(=O)N[C@@H](CO)C(=O)N1CCC[C@H]1C(=O)N[C@@H](CCC(N)=O)C(=O)NCC(=O)N[C@@H](Cc1ccc(O)cc1)C(N)=O)[C@@H](C)CC)C(C)C)[C@@H](C)O [ADM] | – | – | activity toward GPR182, in words (GPR182): no activity |
| CC(C)C[C@H](NC(=O)[C@H](C)NC(=O)[C@H](Cc1c[nH]c2ccccc12)NC(=O)[C@H](CCCCN)NC(=O)[C@H](CC(N)=O)NC(=O)[C@H](Cc1c[nH]c2ccccc12)NC(=O)[C@H](CCCCN)NC(=O)[C@H](CCCCN)NC(=O)[C@H](CCCNC(=N)N)NC(=O)[C@@H](N)Cc1ccccc1)C(=O)N[C@@H](CO)C(=O)N[C@@H](CCCNC(=N)N)C(N)=O [PAMP-12] | – | – | EC50 (MrgX2; [3]): 785 nM; EC50 (MrgX2; [4]): 776 nM; activity toward GPR182, in words (GPR182): no activity |
| CSCC[C@H](NC(=O)[C@H](CC(C)C)NC(=O)CNC(=O)[C@H](Cc1ccccc1)NC(=O)[C@H](Cc1ccccc1)NC(=O)[C@H](CCC(N)=O)NC(=O)[C@H](CCC(N)=O)NC(=O)[C@@H]1CCCN1C(=O)[C@H](CCCCN)NC(=O)[C@@H]1CCCN1C(=O)[C@@H](N)CCCNC(=N)N)C(N)=O [substance P, reference compound] | – | – | activity toward ACKR3 (β-arrestin-2 recruitment), in words (ACKR3; HEK cells, NanoBiT): no activity |
| AFRKKWNKWALSR-NH2 | 891 | 2000 | – |
| AMY: CGRP family peptide (KCNTATCATQRLANFLVHSSNNFGAILSSTNVGSNTY; not fully specified (C-terminus, bridges); cysteine pairing not given here; UniProt P10997 34-70, looked up) [reference compound] | – | – | activity toward ACKR3 (β-arrestin-2 recruitment), in words (ACKR3; HEK cells, NanoBiT): No activity |
| ARKKWNKWALSR-NH2 | 933 | 46800 | – |
| ARLDVASEFRKKWNKWA [PAMP1-17] | 95500 | 331000 | – |
| ARLDVASEFRKKWNKWALSR-NH2 [PAMP] | – | – | EC50 (MrgX2; [3]): 6200 nM; EC50 (MrgX2; [4]): 6170 nM; activity toward GPR182, in words (GPR182): no activity; EC50 (ACKR3): > 10000 nM |
| CT: CGRP family peptide [reference compound] | – | – | activity toward ACKR3 (β-arrestin-2 recruitment), in words (ACKR3; HEK cells, NanoBiT): No activity |
| CXCL12: chemokine, full agonist of ACKR3; purchased from PeproTech | – | – | effect of chemokine preincubation on PAMP-12-FAM accumulation in HEK-ACKR3 cells, in words (HEK-ACKR3 cells): reduced PAMP-12 accumulation to background levels |
| DVASEFRKKWNKWALSR-NH2 [PAMP 4-20] | 3310 | 178000 | – |
| FAKKWNKWALSR-NH2 | 1000 | 9330 | – |
| FKKKWNKWALSR-NH2 | 1450 | 3310 | – |
| FRAKWNKWALSR-NH2 | 977 | 1350 | – |
| FRKAWNKWALSR-NH2 | 661 | 269 | – |
| FRKKANKWALSR-NH2 | 2000 | 7590 | – |
| FRKKFNKWALSR-NH2 | 589 | 4270 | – |
| FRKKWAKWALSR-NH2 | 479 | 832 | – |
| FRKKWDKWALSR-NH2 | 479 | 589 | – |
| FRKKWNAWALSR-NH2 | 550 | 1260 | – |
| FRKKWNKAALSR-NH2 | 2510 | 2240 | – |

| Compound | EC50 (MrgX2) [nM] | EC50 (ACKR3; [2]) [nM] | also measured |
| --- | --- | --- | --- |
| FRKKWNKFALSR-NH2 | 1050 | 1150 | – |
| FRKKWNKWAASR-NH2 | 1480 | 2880 | – |
| FRKKWNKWAFSR-NH2 | 741 | 955 | – |
| FRKKWNKWALAR-NH2 | 339 | 912 | – |
| FRKKWNKWALFR-NH2 | 209 | 575 | – |
| FRKKWNKWALS-NH2 [FRKKWNKWALS -] | 1550 | 2570 | – |
| FRKKWNKWALSA-NH2 | 5750 | 11200 | – |
| FRKKWNKWALSK-NH2 | 794 | 1020 | – |
| FRKKWNKWALTR-NH2 | 269 | 575 | – |
| FRKKWNKWFLSR-NH2 | 417 | 513 | – |
| FRKKWNKWGLSR-NH2 | 1100 | 1580 | – |
| FRKKWNKYALSR-NH2 | 741 | 776 | – |
| FRKKWNRWALSR-NH2 | 1950 | 331 | – |
| FRKKWQKWALSR-NH2 | 4680 | 776 | – |
| FRKKYNKWALSR-NH2 | 2450 | 3160 | – |
| FRKRWNKWALSR-NH2 | 1910 | 759 | – |
| FRRKWNKWALSR-NH2 | 2750 | 468 | – |
| KWNKWALSR-NH2 [PAMP(12–20)] | – | – | agonist activity toward the other 24 chemokine receptors tested, in words [1]: do not activate |
| RKKWNKWALSR-NH2 [- RKKWNKWALSR] | 2090 | 28800 | – |
| WNKWALSR-NH2 [PAMP 13-20] | – | 11700 | – |
| YRKKWNKWALSR-NH2 | 912 | 6760 | – |

From publication PMC8033753, “Proadrenomedullin N-Terminal 20 Peptides (PAMPs) Are Agonists of the Chemokine Scavenger Receptor ACKR3/CXCR7” (ACS Pharmacology & Translational Science, 2021)
